# Data: PMC6199744, “Development of Chemical Proteomics for the Folateome and Analysis of the Kinetoplastid Folateome” (ACS Infectious Diseases, 2018)
# Tested on: L. major lysate proteins
# Assay: Multitargeted bead mixture chemoproteomics, single concentration competition, proteome-wide
# Format: binding
# Settings: for fold change: vehicle control = 1
smiles,measurement,setting,value
NCCOCCOCC(=O)Nc1nc2ncc(CNc3ccc(C(=O)NC(CCC(=O)O)C(=O)O)cc3)nc2c(=O)[nH]1 (stereo not drawn) [compound 6],fold change,"protein LMJF.28.0710 HYPOTHETICAL PROTEIN, CONSERVED (SNARE associated Golgi protein, putative)",1
same,fold change vs vehicle control,"protein LMJF.28.0930 HY[…], CONSERVED",1.01
same,fold change vs vehicle control,protein LMJF.28.0960 40S RIBOSOMAL PROTEIN S14,1.09
same,fold change vs vehicle control,"protein LMJF.28.1530 ATP DEPENDENT DEAD-BOX HELICASE, PUTATIVE",0.91
same,fold change relative to vehicle control,"protein LMJF.28.1730, PROTEASOME REGULATORY NON-ATP-ASE SUBUNIT 2, PUTATIVE",1.1
same,fold change relative to vehicle control,"protein LMJF.28.2310, EUKARYOTIC TRANSLATION INITIATION FACTOR, PUTATIVE",1.1
same,fold change vs vehicle control,"protein LMJF.28.2430 VACUOLAR ATP SYNTHASE SUBUNIT B, PUTATIVE",0.97
same,fold change relative to vehicle control,"protein LMJF.28.2770, HEAT-SHOCK PROTEIN HSP70, PUTATIVE",1.35
same,fold change,"protein LMJF.28.2910 GLUTAMATE DEHYDROGENASE, PUTATIVE",0.9
same,fold change vs vehicle control,"protein LMJF.29.0120 PROTEASOME REGULATORY NON-ATPASE SUBUNIT, PUTATIVE",1
same,fold change,"protein LMJF.29.0620 ATP-BINDING CASSETTE PROTEIN SUBFAMILY A, MEMBER 10, PUTATIVE",0.81
same,fold change vs vehicle control,"protein LMJF.29.0760 […] BI[…], PUTATIVE,HEAT SHOCK PROTEIN 90, PUTATIVE",1.05
same,fold change relative to vehicle control,"protein LMJF.29.0850, HIGH MOBILITY GROUP PROTEIN HOMOLOG TDP-1, PUTATIVE",1.17
same,fold change vs vehicle control,"protein LMJF.29.0940 HY[…], CONSERVED",1.19
same,fold change vs vehicle control,protein LMJF.29.1160 TRYPAREDOXIN,0.8
same,fold change vs vehicle control,"protein LMJF.29.1240 HYPOTHETICAL PROTEIN, UNKNOWN FUNCTION",0.95
same,fold change vs vehicle control,protein LMJF.29.1270 100 kDa heat shock protein (Hsp100),1.02
same,fold change vs vehicle control,"protein LMJF.29.1310 CARNITINE/CHOLINE ACETYLTRANSFERASE, PUTATIVE",1.07
same,fold change relative to vehicle control,"protein LMJF.29.1760, PAR[…] PROTEIN 1D, PUTATIVE",1.02
same,fold change vs vehicle control,"protein LMJF.29.1780 DIPHTHAMIDE SYNTHESIS PROTEIN, PUTATIVE",0.96
same,fold change,"protein LMJF.29.2200 GTP-BINDING PROTEIN, PUTATIVE (dynamin-1-like protein)",1.03
same,fold change,protein LMJF.29.2310 ENOYL-COA HYDRATASE/ISOMERASE-LIKE PROTEIN,0.99
same,fold change vs vehicle control,"protein LMJF.29.2360 ASPARTYL AMINOPEPTIDASE, PUTATIVE,METALLO-PEPTIDASE, CLAN MH, FAMILY M20",0.95
same,fold change,protein LMJF.29.2860 40S RIBOSOMAL PROTEIN S19-LIKE PROTEIN,1.12
same,fold change,"protein LMJF.30.0580 HY[…], CONSERVED (AMP-binding enzyme, putative)",1.03
same,fold change,"protein LMJF.30.0850 SURFACE PROTEIN AMASTIN, PUTATIVE",0.98
same,fold change vs vehicle control,"protein LMJF.30.1250 PYRIDOXAL KINASE, PUTATIVE",1.24
same,fold change vs vehicle control,"protein LMJF.30.2580 RETICULON DOMAIN PROTEIN, 22 KDA POTENTIALLY AGGRAVATING PROTEIN (PAPLE22)",0.95
same,fold change relative to vehicle control,"protein LMJF.30.3090, HY[…], CONSERVED (RNA-binding protein 42, putative)",1.16
same,fold change vs vehicle control,"protein LMJF.30.3240 GLUTAMYL-TRNA SYNTHETASE, PUTATIVE",1.11
same,fold change,"protein LMJF.30.3380 PAS-DOMAIN CONTAINING PHOSPHOGLYCERATE KINASE, PUTATIVE",0.84
same,fold change,"protein LMJF.30.3430 HY[…], CONSERVED (protein mkt1, putative)",1.04
same,fold change,protein LMJF.30.3520 S-ADENOSYLMETHIONINE SYNTHETASE,0.86
same,fold change,"protein LMJF.30.3570 ZINC FINGER-DOMAIN PROTEIN, PUTATIVE",0.86
same,fold change relative to vehicle control,"protein LMJF.31.0080, HYPOTHETICAL PROTEIN, CONSERVED",1.2
same,fold change vs vehicle control,"protein LMJF.31.0340 AMINO ACID PERMEASE, PUTATIVE",1.17
same,fold change,"protein LMJF.31.1130 N-ACYL-L-AMINO ACID AMIDOHYDROLASE, PUTATIVE",0.98
same,fold change vs vehicle control,protein LMJF.31.1640 THIOLASE PROTEIN-LIKE PROTEIN,1.09
same,fold change relative to vehicle control,"protein LMJF.31.2150, PROSTAGLANDIN F2-ALPHA SYNTHASE/D-ARABINOSE DEHYDROGENASE",1.02
same,fold change vs vehicle control,"protein LMJF.31.2250 3,2-TRANS-ENOYL-COA ISOMERASE, MIT[…], PUTATIVE",0.97
same,fold change vs vehicle control,"protein LMJF.32.0750 RNA BINDING PROTEIN, PUTATIVE",1.19
same,fold change vs vehicle control,"protein LMJF.32.1060 DYNEIN, PUTATIVE",0.96
same,fold change relative to vehicle control,"protein LMJF.32.1820, IRON […], PUTATIVE",1.08
same,fold change relative to vehicle control,"protein LMJF.32.2320, C-14 STEROL REDUCTASE, PUTATIVE",1.02
same,fold change relative to vehicle control,"protein LMJF.32.2950, NUCLEOSIDE DIPHOSPHATE KINASE B",0.94
same,fold change vs vehicle control,protein LMJF.32.3870 MYOSIN XXI,0.97
same,fold change relative to vehicle control,"protein LMJF.33.0240, THIOL-DEPENDENT REDUCTASE 1",1.18
same,fold change,"protein LMJF.33.0280 HYPOTHETICAL PROTEIN, CONSERVED",0.92
same,fold change relative to vehicle control,"protein LMJF.33.0890, HY[…], CONSERVED",1.01
same,fold change vs vehicle control,"protein LMJF.33.1070 HY[…], UNKNOWN FUNCTION",1.07
same,fold change vs vehicle control,"protein LMJF.33.1330 CYSTEINE CONJUGATE BETA-LYASE, AMINOTRANSFERASE- LIKE PROTEIN",1.04
same,fold change,"protein LMJF.33.1590 HYPOTHETICAL PROTEIN, CONSERVED (3-ketoacyl-CoA reductase, putative)",0.97
same,fold change relative to vehicle control,"protein LMJF.33.1860, ATP-BINDING CASSETTE PROTEIN SUBFAMILY D, MEMBER 3, PUTATIVE",1.15
same,fold change relative to vehicle control,"protein LMJF.33.2340, SUCCINYL-COA:3-KETOACID-COENZYME A TRANSFERASE, MIT[…], PUTATIVE",1.18
same,fold change relative to vehicle control,"protein LMJF.33.2440, HY[…], CONSERVED",1.19
same,fold change relative to vehicle control,"protein LMJF.33.2540, CARBOXYPEPTIDASE, PUTATIVE,METALLO-PEPTIDASE, CLAN MA(E), FAMILY M32",1.79
same,fold change,"protein LMJF.33.3150 40S RIBOSOMAL PROTEIN S13, PUTATIVE",0.88
same,fold change relative to vehicle control,"protein LMJF.34.0140, MALATE DEHYDROGENASE",1.47
same,fold change vs vehicle control,protein LMJF.34.0440 RIBOSOMAL PROTEIN S25,1.1
same,fold change relative to vehicle control,"protein LMJF.34.2580, HY[…], CONSERVED (ALBA-domain protein 3)",1.11
same,fold change relative to vehicle control,"protein LMJF.34.3250, PUTATIVE PYRUVATE/INDOLE-PYRUVATE CARBOXYLASE, PUTATIVE",0.98
same,fold change,"protein LMJF.34.4370 20S […] 7 SUBUNIT, (PUTATIVE)",0.96
same,fold change vs vehicle control,"protein LMJF.34.4620 HY[…], CONSERVED",1.01
same,fold change,"protein LMJF.35.0070 PROHIBITIN, PUTATIVE",1.04
same,fold change vs vehicle control,"protein LMJF.35.0360 ENOYL-COA HYDRATASE/ISOMERASE FAMILY PROTEIN, CONSERVED",1.24
same,fold change,"protein LMJF.35.0370 ATP-DEPENDENT DEAD-BOX RNA HELICASE, PUTATIVE",1.08
